Structures can show the parent of a compound that is named as a salt.
What was measured:
[1] = tested on: lumbar spine (L4-5) vertebral body of ovariectomized rats; assay: Suppression of bone mass decrease in ovariectomized rats (osteoporosis model rats); assay type: in vivo, Female SD rats; settings: 12 weeks, Control 46.1 ± 0.5, Normal control 56.3 ± 1.4
Method: Experimental Example 2 suppression of bone mass decrease
The suppressive effect of the compound of the present invention on the bone mass decrease was tested using the ovariectomized rats (osteoporosis model rats).
Female SD rats (13 weeks of age) were subjected to bilateral ovariectomies under anesthesia with Nembutal (50 mg/kg/ml, i.p.; Dai-Nippon Pharmaceutical). At the same time, a sham control group that was subjected to sham surgery without removing ovaries was prepared. The next day of the operation, the rats were grouped in such a manner that the bone mineral density (hereinafter abbreviated as BMD) of each group would reach an average. The BMD was determined by their bone mineral density of lumbar spine (L 4-5) that was measured with a DXA bone densitometer (DCS-600 R, Aloka) under ether anesthesia. The test compounds were suspended in 0.5% hydroxypropylmethylcellulose (hereinafter abbreviated as HPMC, Shin-Etsu Chemical Industries, Ltd.) and they were administered orally at the doses of 0.3, 1.0 and 3.0 mg/kg (5 ml/kg:) for 12 weeks daily from the day following the operation. As a positive control, 17 β-estradiol (Sigma) was dissolved in 5% benzyl alcohol and 95% corn oil, and administered subcutaneously at a dose of 50 μg/kg (1 ml/kg) twice a week for 12 weeks. 0.5% HPMC was administered orally to the normal control and the control for 12 weeks at 5 ml/kg. The next day of the final administration, the rats were exsanguinated and killed under ether anesthesia and the lumbar spine (L4-5) was recovered. The soft tissues and processes were removed from the obtained lumbar spine and BMD of the vertebral body (L4-5) was determined with DCS-600 R (Aloka).
The results are shown by mean±S.E. of the respective groups and the statistical evaluations of the effect of respective groups were made by one-way analysis of variance. The significance was ascribed at less than 5%.

calvaria = assay: Inhibition of bone resorption (45Ca release from calvaria stimulated with hPTH (1-34), method of Raisz); assay type: cell-based, new born ICR mouse; settings: Mus musculus, 72 h; 45Ca release, 50 nM hPTH (1-34), 3 days incubation; test concentrations 0.04, 0.2 and 1 μM; mean of 4 pairs; read-out: IC50 (inhibition of bone resorption)
Description: The determination of the inhibitory action on the bone resorption was basically in accordance with the method of Raisz [J. Clin. Invest. vol.
A new born ICR mouse (one or two days old) was intraperitoneally administered with 1.5μ Ci ^45 Ca (isotope of calcium as CaCl2 solution) and calvaria was aseptically removed the next day. The calvaria was split into two along the central suture line, and one of them was used as a control and the other was used as a test compound. The calvaria was preincubated at 37° C. for 2 days in BGJb medium [0.5 ml, Fitton-Jackson modification, GIBCO Laboratories, USA, containing bovine serum albumin 1 mg/ml] added with a test compound to the concentrations of 0.04 μM, 0.2 μM and 1 μM and then in the above-mentioned medium containing 50 nM hPTH (1-34) for further 3 days. After the incubation, the ^45 Ca radioactivity in the medium and the bone was determined, and the proportion (%) of ^45 Ca released from the bone into the medium was calculated by the following formula.
Using the bone obtained from the same mouse and treated in the same manner without adding a test compound, as a control, the proportion (%) relative to the control group was determined according to the following formula.

[2] = 0.3 mg/kg p.o., daily, n=9, mean ± S.E.
[3] = 1 mg/kg p.o., daily, n=8, mean ± S.E., *p < 0.05
[4] = 3 mg/kg p.o., daily, n=9, mean ± S.E., **p < 0.01

Compound	IC50 (calvaria) [nM]	also measured
C[C@]12CC[C@@H]3c4ccc(O)cc4CC[C@H]3[C@@H]1CC[C@@H]2O [17 β-estradiol, reference compound]	–	BMD of body of vertebra ([1]; positive control, 0.05 mg/kg s.c., twice a week, n=8, mean ± S.E.): 53.5 ± 0.7 mg/cm^2
Cc1nnc2n1-c1ccccc1C(c1ccc(Cl)cc1)=NN2Cc1cccnc1 [Example 54, 6-(4-Chlorophenyl)-1-methyl-4-(pyridin-3-ylmethyl)-4H-2,3,4,5,10b-pentaazabenz[e]azulene]	540	BMD of body of vertebra [1, 2]: 46.2 ± 0.4 mg/cm^2; BMD of body of vertebra [1, 3]: 47.3 ± 0.6 mg/cm^2; BMD of body of vertebra [1, 4]: 51.6 ± 0.4 mg/cm^2
Cc1sc2c(c1C)C(c1ccccc1)=NN(Cc1ccncc1)c1nnc(C)n1-2 [Example 146, 2,3,9-Trimethyl-4-phenyl-6-(pyridin-4-ylmethyl)-6H-5,6,7,8,9a-pentaazathien[2,3-e]azulene]	100	–
CCc1cc2c(s1)-n1c(C)nnc1N(Cc1cccnc1)N=C2c1ccccc1 [Example 147, 2-Ethyl-9-methyl-4-phenyl-6-(pyridin-3-ylmethyl)-6H-5,6,7,8,9a-pentaazathien[2,3-e]azulene]	810	–
COc1ccc(C2=NN(Cc3cccnc3)c3nnc(C)n3-c3sc(C)c(C)c32)cc1 [Example 149, 4-(4-Methoxyphenyl)-2,3,9-trimethyl-6-(pyridin-3-ylmethyl)-6H-5,6,7,8,9a-pentaazathien[2,3-e]azulene]	180	–
Cc1nnc2n1-c1ccccc1C(c1ccc(Cl)cc1)=NN2Cc1ccc(O)cc1 [Example 184, 6-(4-Chlorophenyl)-4-(4-hydroxybenzyl)-1-methyl-4H-2,3,4,5,10b-pentaazabenz[e]azulene]	560	–

More lines, main results first:

IC50 (calvaria) [nM]	Compound	also measured
990	Cc1ccc2c(c1)-n1c(C)nnc1N(Cc1ccncc1)N=C2c1ccccc1 [Example 131, 1,9-Dimethyl-6-phenyl-4-(pyridin-4-ylmethyl)-4H-2,3,4,5,10b-pentaazabenz[e]azulene]	BMD of body of vertebra [1, 2]: 46.5 ± 0.8 mg/cm^2; BMD of body of vertebra [1, 3]: 48.5 ± 0.5 mg/cm^2; BMD of body of vertebra [1, 4]: 51.3 ± 0.9 mg/cm^2
680	CCc1cc2c(s1)-n1c(C)nnc1N(Cc1ccncc1)N=C2c1ccccc1 [Example 148, 2-Ethyl-9-methyl-4-phenyl-6-(pyridin-4-ylmethyl)-6H-5,6,7,8,9a-pentaazathien[2,3-e]azulene]	–
29	COc1ccc(C2=NN(Cc3ccncc3)c3nnc(C)n3-c3sc(C)c(C)c32)cc1 [Example 150, 4-(4-Methoxyphenyl)-2,3,9-trimethyl-6-(pyridin-4-ylmethyl)-6H-5,6,7,8,9a-pentaazathien[2,3-e]azulene]	–
790	CCOc1ccc(CN2N=C(c3ccc(Cl)cc3)c3ccccc3-n3c(C)nnc32)cc1 [Example 186, 6-(4-Chlorophenyl)-4-(4-ethoxybenzyl)-1-methyl-4H-2,3,4,5,10b-pentaazabenz[e]azulene]	–
260	CC(=O)Nc1ccc(CN2N=C(c3ccc(Cl)cc3)c3ccccc3-n3c(C)nnc32)cc1 [Example 189, 4-(4-Acetylaminobenzyl)-6-(4-chlorophenyl)-1-methyl-4H-2,3,4,5,10b-pentaazabenz[e]azulene]	–
740	Cc1nnc2n1-c1ccccc1C(c1ccc(Cl)cc1)=NN2Cc1ccc(N(C)C)cc1 [Example 191, 6-(4-Chlorophenyl)-4-(4-dimethylaminobenzyl)-1-methyl-4H-2,3,4,5,10b-pentaazabenz[e]azulene hydrochloride]	–

From US5807850A, “Therapeutic agent for osteoporosis and triazepine compound” (Japan Tobacco, Inc., priority 1994, dated 1998)
